In patent publication US20230055441A1 (NONO INC., priority 2020, published 2023):
Entries after “also recorded” stand apart in the source; their conditions may differ. Where two headings read alike, the source gives them in different places. Square brackets hold non-standard residues; d marks the D form. Ends that are not written are not given here. Peptide text beside a SMILES is read from it.

Legend:
plasmin [1] = molecular target: T1, plasmin (Homo sapiens, UniProt P00747); format: in vitro ADME
T1 construct: NA-1 was digested with plasmin

PSD95PDZ2 = PSD95PDZ2 (Homo sapiens, UniProt P78352); assay: Competitive ELISA with biotinylated-NA-1 on coated PSD95PDZ2; format: binding; details: for EC50 compared among NA-1, D-Tat-L-2B9C and D-NA-1: FIG. 12
Method: Binding was evaluated with a competitive ELISA assay. A plate was coated with 1 ug/ml PSD95PDZ2 in 50 mM bicarbonate buffer overnight at 4C. The plate was blocked in 2% BSA in PBST (0.05%) for 2 h at room temperature. […] The wells were washed again, and then incubated with TMB solution for 10 min. The reaction was stopped with 100 ul H2SO4. Absorbance was determined at 450 nm with the synergy H1 reader.

rt-PA [2] = system: rt-PA
tPA = tPA (Homo sapiens, UniProt P00750)
[3] = rat, in vivo, 25 mg/kg
Method: (§1) Rats were anaesthetized in the supine position (Isoflurane 1.5-%) and allowed to breath spontaneously in 0.5 L/min 02. The left femoral artery was cannulated for blood sampling.
(§2) Test agents were prepared at the stablish concentration in a total volume of vehicle. Pulmonary instillation was performed by intubation with a 14G catheter connected to a 1 cc syringe and the test agent will be delivered through the catheter. Subcutaneous (SQ or SC) injection was injected into the area of the left flank, no more than 2 ml of total volume per site.
(§3) Each dose was evaluated in 3 rats for each administration strategy. […] For the first experiment, evaluating two different administration routes (SQ and PI), blood samples were collected at 8 different timepoints: Pre and at 7 additional times (1, 2.5, 5, 10, 15, 30, 60 min) post dose (250 ul/sample). For the 24-hour PK curve experiment, blood samples were collected at 11 timepoints: Pre, 2.5, 5, 10, 15, 30, 60 min, 3 hr, 6 hr, 12 hr and 24 hr.
(§4) HPLC quantification: Plasma was separated from blood and stored at −80° C. until used. Each sample was precipitated by adding 1M HCl (10 ul/100 ul sample) at >80° C., centrifuged (12,000 rpm×15 min) and the precipitate collected. A 5 cm C—18 RP-HPLC column was equilibrated with 10% acetonitrile with 0.1% TFA at 40° C., the sample was injected and run in an Agilent 1260 Infinity Quaternary LC System. (30 min at 1.5 mL/min; gradient from 10% to 35% acetonitrile in 0.1% TFA; Absorbance detected at 220 nm). Standard curves for HPLC were generated from plasma samples spiked with known quantities of test agent.

histamine = details: rat, in vivo, iv, 7.6 mg/kg
Method: Blood samples were collected at 11 timepoints: Pre, 2.5, 5, 10, 15, 30, 60 min, 3 hr, 6 hr, 12 hr and 24 hr. Histamine levels were quantified by using commercially available histamine ELISA assay kit (Histamine ELISA-H1531-K01, Eagle Bioscience). The plates were coated with the plasma samples (50 ul/well) incubated for 60 minutes at room temperature on an orbital shaker with medium frequency. Then 100 ul of enzyme conjugate was added to the wells and incubated for 20 minutes at room temperature. Samples were washed again, and then incubated for 25 minutes at room temperature with TMB solution. The reaction was stopped with 100 ul H2SO4. Absorbance was determined on an ELISA plate reader at 450 nm.
Blood samples were taken at pre-injection and at 0, 1, 2.5, 5, 10, 15, 30- and 60-minutes post dose and used for histamine levels quantification using commercially available kit.

plasmin [4] = molecular target: T1, plasmin; format: in vitro ADME; remark: listed apart in the source
Description: Plasmin is a serum protease induced by thrombolytic agents, such as tPA. Plasmin cleavage sites can occur on the C-terminal side of basic amino acids residues in a peptide formed of L-amino acids. NA-1 was digested with plasmin and the products analyzed by mass spectrometry. […] However, cleavage at the other two sites may occur to a lesser extent.

[5] = NA-1 plasma levels after administering NA-1 and tPA to rats; parameters: species or system rat; details: rats in vivo, rt-PA 5.4 mg/kg, versus NA-1 alone
NMDAR2B:PSD-95 complexes = molecular target: T2, NMDAR2B:PSD-95 complexes (Rattus norvegicus, UniProt P31016); assay: Dissociation of NMDAR2B:PSD-95 complexes in three pial vessel model (3PVo), immunoprecipitation and Western blotting; format: in vivo, Sprague-Dawley rats; details: 7.6 mg/kg 1 hr after stroke onset, brains harvested 2 h after onset, rat 3PVo
T2 construct: Cortical stroke areas were collected for analysis; from tissue; host or cells: rat brain, cortical stroke area, after in vivo dosing
Method: Sprague-Dawley rats were subject to three pial vessel model (3PVo). […] Brains were harvested 2 h after stroke onsets. Cortical stroke areas were collected for analysis. Immunoprecipitations were performed with anti-PSD-95 or anti-NMDAR2B. The amount of PSD-95 and NMDAR2B in samples was analyzed by Western blotting. Reduction in PSD-95-NMDAR2B complex formation was assessed by fold decrease of placebo versus treatment.

[6] = system: embolic MCA occlusion model; assay: Embolic MCA occlusion model (eMCAo); format: in vivo
[7] = system: 3-pial vessel occlusion model of stroke; details: for infarct volume: versus placebo
Method: Treatments were administered subcutaneously as a bolus injection, 60 minutes after the onset of stroke. […] Data is presented as mean±SD, N=10/group. The asterisk (*) represents statistical significance when compared to Placebo (ANOVA, with a Tukey's post-hoc analysis, *P<0.0332, **P<0.0021, ***P<0.0002 and ****P<0.0001).

[8] = Plasma concentrations 15 minutes after subcutaneous dose in rats of the 3-pial vessel occlusion study; format: in vivo; details: rat, single subcutaneous administration 25, 7.6, 2.5 mg/kg
Method: Unlike transient models of stroke in rats where much lower doses are required for neuroprotection, neuroprotection in 3 pial vessel occlusion models of stroke seems to require plasma concentrations of nerinetide at or above 2 ug/mL (or molar equivalent). […] Although the plasma levels continue to increase through about 3 hours then decrease, it is important to achieve rapid accumulation in the blood and brain for emergency indications like stroke. […] For pharmacokinetic sample analysis, calibration standard samples at concentrations of 0, 2.5, 5, 10, 15, 20 and 40 ug/mL of nerinetide were prepared by spiking 1 μL of the appropriate stock to 100 μL of plasma. […] Data is presented as mean±SD.

[9] = 2.6 mg/kg dose; cited from earlier work
rt-PA [10] = assay: Degradation in rat plasma in vitro with rt-PA
rt-PA [11] = assay: Degradation in human plasma in vitro with rt-PA; details: given simultaneously with rt-PA (tPA)
[12] = system: TNK-tissue plasminogen activator; assay: Degradation in rat plasma with TNK-tissue plasminogen activator; details: given simultaneously with TNK
Description: (§5) The experiment was repeated using TNK-tissue plasminogen activator in place of tPA.

[13] = system: TNK-tissue plasminogen activator; assay: Degradation in human plasma with TNK-tissue plasminogen activator; details: given simultaneously with TNK
Description: as §5

[14] = Pharmacokinetic analysis in rats by route (subcutaneous, pulmonary instillation, intramuscular, intravenous); details: rat
Method: as §1, §2, §3, §4

[15] = without tPA, 7.6 mg/kg IV bolus 1 hour after stroke onset
[16] = intramuscular versus intravenous

T1 sequence (P00747 581-810 limits assumed, species assumed): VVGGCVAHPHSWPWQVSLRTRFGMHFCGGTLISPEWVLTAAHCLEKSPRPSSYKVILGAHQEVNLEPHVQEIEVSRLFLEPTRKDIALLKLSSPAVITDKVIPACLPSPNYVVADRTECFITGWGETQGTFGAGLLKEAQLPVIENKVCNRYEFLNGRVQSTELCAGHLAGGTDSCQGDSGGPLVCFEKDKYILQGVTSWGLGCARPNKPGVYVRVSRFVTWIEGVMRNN
T1 sequence (P00747 97-580 limits assumed, species assumed): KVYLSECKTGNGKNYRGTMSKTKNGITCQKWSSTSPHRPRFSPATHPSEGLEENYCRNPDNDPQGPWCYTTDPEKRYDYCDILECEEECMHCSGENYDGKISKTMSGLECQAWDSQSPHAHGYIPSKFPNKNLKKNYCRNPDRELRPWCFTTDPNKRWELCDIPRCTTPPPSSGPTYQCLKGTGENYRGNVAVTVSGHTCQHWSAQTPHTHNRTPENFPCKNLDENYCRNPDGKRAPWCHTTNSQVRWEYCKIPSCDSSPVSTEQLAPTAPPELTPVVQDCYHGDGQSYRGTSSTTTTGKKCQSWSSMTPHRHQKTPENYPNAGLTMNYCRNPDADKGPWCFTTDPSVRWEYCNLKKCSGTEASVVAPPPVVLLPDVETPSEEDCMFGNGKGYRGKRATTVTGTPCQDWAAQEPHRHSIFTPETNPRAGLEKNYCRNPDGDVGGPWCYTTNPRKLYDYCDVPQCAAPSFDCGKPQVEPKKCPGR
Chain of PSD95PDZ2 (P78352 160-246 limits assumed): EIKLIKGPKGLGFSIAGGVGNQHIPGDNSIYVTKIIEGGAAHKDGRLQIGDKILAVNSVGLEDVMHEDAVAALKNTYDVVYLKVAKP
T2 sequence (P31016 whole entry, one chain of several): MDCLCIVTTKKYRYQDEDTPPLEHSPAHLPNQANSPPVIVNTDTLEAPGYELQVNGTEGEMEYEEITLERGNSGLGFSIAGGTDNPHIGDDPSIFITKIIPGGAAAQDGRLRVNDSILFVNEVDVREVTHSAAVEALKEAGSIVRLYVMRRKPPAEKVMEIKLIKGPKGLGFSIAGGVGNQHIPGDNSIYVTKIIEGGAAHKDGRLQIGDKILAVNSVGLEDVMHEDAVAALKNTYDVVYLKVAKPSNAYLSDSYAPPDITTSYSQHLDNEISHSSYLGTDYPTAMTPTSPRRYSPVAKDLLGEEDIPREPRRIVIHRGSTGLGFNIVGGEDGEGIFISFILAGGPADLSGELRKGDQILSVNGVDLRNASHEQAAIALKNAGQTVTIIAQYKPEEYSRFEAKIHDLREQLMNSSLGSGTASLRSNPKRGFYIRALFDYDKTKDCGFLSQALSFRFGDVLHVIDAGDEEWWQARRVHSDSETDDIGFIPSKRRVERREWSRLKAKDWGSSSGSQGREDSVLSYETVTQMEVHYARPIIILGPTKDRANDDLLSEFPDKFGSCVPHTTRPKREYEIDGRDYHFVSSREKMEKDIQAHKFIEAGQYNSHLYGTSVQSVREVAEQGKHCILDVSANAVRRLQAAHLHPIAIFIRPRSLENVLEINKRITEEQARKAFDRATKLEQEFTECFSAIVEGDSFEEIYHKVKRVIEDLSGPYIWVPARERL
Chain of tPA (P00750 36-562): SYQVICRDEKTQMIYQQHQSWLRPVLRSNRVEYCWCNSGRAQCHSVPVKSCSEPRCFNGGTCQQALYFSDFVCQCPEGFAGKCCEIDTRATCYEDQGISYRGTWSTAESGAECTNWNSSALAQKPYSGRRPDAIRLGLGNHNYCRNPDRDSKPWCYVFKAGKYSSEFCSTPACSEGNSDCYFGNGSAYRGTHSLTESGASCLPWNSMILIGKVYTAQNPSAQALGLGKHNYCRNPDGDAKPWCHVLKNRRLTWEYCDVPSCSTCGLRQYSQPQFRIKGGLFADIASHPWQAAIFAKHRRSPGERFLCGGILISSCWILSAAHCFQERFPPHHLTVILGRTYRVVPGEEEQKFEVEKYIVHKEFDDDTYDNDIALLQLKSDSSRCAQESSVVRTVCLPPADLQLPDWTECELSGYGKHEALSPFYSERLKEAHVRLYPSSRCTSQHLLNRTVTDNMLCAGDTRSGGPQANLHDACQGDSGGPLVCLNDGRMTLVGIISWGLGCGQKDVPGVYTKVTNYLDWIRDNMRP

With CC[C@H](C)[C@H](NC(=O)[C@H](CO)NC(=O)[C@H](CO)NC(=O)[C@H](CC(C)C)NC(=O)[C@H](CCCCN)NC(=O)[C@@H](CCCNC(=N)N)NC(=O)[C@@H](CCCNC(=N)N)NC(=O)[C@@H](CCCNC(=N)N)NC(=O)[C@@H](CCC(N)=O)NC(=O)[C@@H](CCCNC(=N)N)NC(=O)[C@@H](CCCNC(=N)N)NC(=O)[C@@H](CCCCN)NC(=O)[C@@H](CCCCN)NC(=O)[C@@H](CCCNC(=N)N)NC(=O)CNC(=O)[C@H](N)Cc1ccc(O)cc1)C(=O)N[C@@H](CCC(=O)O)C(=O)N[C@@H](CO)C(=O)N[C@@H](CC(=O)O)C(=O)N[C@H](C(=O)O)C(C)C [D-TAT-L-2B9c] (H-[dY]G[dR][dK][dK][dR][dR][dQ][dR][dR][dR]KLSSIESDV-OH; N-terminus and C-terminus assumed) the “degradation by plasmin in PBS” value (plasmin [1]) was “resistant to plasmin cleavage”, the IC50 (PSD95PDZ2) was < 5 µM and the “EC50 compared among NA-1, D-Tat-L-2B9C and D-NA-1” value (PSD95PDZ2) was “about the same within experimental error”. The “peptide content / degradation in human plasma with rt-PA” value (rt-PA [2]) was “resistant to proteolysis”, the “degradation by tPA or TNK in PBS without plasma” value (tPA) was “no degradation” and the “AUC / plasma exposure, subcutaneous” value [3] was “also increased Cmax and AUC relative to subcutaneous NA-1 but not to the same extent”. For the same molecule, the “Cmax, subcutaneous” value [3] was “also increased Cmax and AUC relative to subcutaneous NA-1 but not to the same extent” and the histamine release (histamine) was “did result in significant histamine release”.

With YGRKKRRQRRRKLSSIESDV [NA-1] the plasmin cleavage sites (plasmin [4]) was “cleavage at seven of nine potential sites”, the “AUC when administered simultaneously with rt-PA” value [5] was “significantly reduced” and the “Cmax when administered simultaneously with rt-PA” value [5] was “significantly reduced”. For the same molecule, the “degradation by plasmin in PBS” value (plasmin [1]) was “rapidly degraded”, the “dissociation of preformed NMDAR2B:PSD-95 complexes” value (NMDAR2B:PSD-95 complexes) was “able to dissociate preformed NMDAR2B:PSD-95 complexes” and the “EC50 compared among NA-1, D-Tat-L-2B9C and D-NA-1” value (PSD95PDZ2) was “about the same within experimental error”. The “binding to PSD-95 PDZ2 domain” value (PSD95PDZ2; competitive ELISA) was “high binding affinity”, the infarction volume ([6]; tPA co-administered (rt-PA 5.4 mg/kg), 7.6 mg/kg IV 1 hour after stroke onset) was “reducing its effect” and the infarction volume [6, 15] was “significantly reduced infarction volume and right hemisphere swelling”. The right hemisphere swelling [6, 15] was “significantly reduced infarction volume and right hemisphere swelling”, the infarct volume ([7]; 7.6 mg/kg subcutaneous bolus 60 minutes after onset of stroke) was “failed to achieved infarct volume reduction” and the infarct volume ([7]; 25 mg/kg subcutaneous bolus 60 minutes after onset of stroke) was “significant reduction in infarct volume”. The “plasma concentration required for neuroprotection” value ([7]; rat, in vivo) was ≥ 2000 ng/mL, the “dose proportionality between treatment dose and Cmax” value [8] was “dose proportionality” and the “effective plasma concentration in human studies” value [9] was ~10 µg/mL. For the same molecule, the “peptide content / degradation in rat plasma with rt-PA” value (rt-PA [10]; given simultaneously with rt-PA (tPA)) was “decayed much more rapidly when tPA was co-administered; also recorded: significantly reduced”, the “time to decay to zero with tPA” value (rt-PA [10]; treated with tPA) was ≤ 15 min and the “peptide content / degradation in human plasma with rt-PA” value (rt-PA [11]) was “decayed much more rapidly when tPA was co-administered; also recorded: significantly reduced”. The “peptide content / degradation in rat plasma with TNK” value [12] was “rapid degradation; also recorded: reduced”, the “peptide content / degradation in human plasma with TNK” value [13] was “rapid degradation; also recorded: reduced” and the “AUC, intramuscular” value [14, 16] was “somewhat higher AUC”. The “Cmax, intramuscular” value [14, 16] was “lower CMax”, the “half-life, intramuscular” value [14, 16] was “higher half-life” and the “half-life, subcutaneous” value ([14]; subcutaneous versus same dose intravenous NA-1) was “longer half-life”. The “Cmax, subcutaneous” value ([14]; subcutaneous, 25 mg/kg (Table 4), NA-1 versus IV NA-1, others versus subcutaneous NA-1) was “much lower CMax” and the “AUC / plasma exposure, subcutaneous” value ([14]; subcutaneous, 25 mg/kg (Table 4), NA-1 versus IV NA-1, others versus subcutaneous NA-1, 25 mg/kg) was “somewhat lower AUC”.
